# Results as given in US20170189496A1, “USE OF PHOSPHORYLATION PATHWAY-RELATED FACTOR IN REGULATING FUNCTION OF REGULATORY T CELL” (Institut Pasteur of Shanghai, Chinese Academy of Sciences, priority 2012, published 2017).
# Entries after “also recorded” stand apart in the source; their conditions may differ.
# Experiments:
# Type in all cases: cell-based
# PIM2 = target: T1, PIM2 (Homo sapiens, UniProt Q9P1W9); test: FOXP3 phosphorylation induced by PIM2 in HEK293T cells (immunoblot); conditions: Myc-FOXP3 + FLAG-PIM2, 50 μM, 12 h
# T1 construct: expressed in transfected cells; host or cells: HEK293T
# Procedure: (§1) Myc-FOXP3, FLAG-PIM1, FLAG-PIM2, and FLAG-PIM3 were co-transfected into HEK293T cells. 36 h later, cells were treated with 50 μM of kaempferol for 12 h. Cells were collected 48 h after cell transfection.
# (§2) Protein samples were subjected to SDS-PAGE, and then transferred to nitrocellulose membrane, which was then sealed in TBST containing 5% nonfat dry milk or 3% bovine serum albumin for 1 h. Primary antibody was added and incubated for 1 h and then HRP-conjugated secondary antibody was added and incubated for 1 h, and results shown by exposure with ECL substrates.
# (§3) HEK293T cells were co-transfected, respectively, with Myc-FOXP3+FLAG-PIM1, Myc-FOXP3+FLAG-PIM2, and Myc-FOXP3+FLAG-PIM3. 36 h later, cells were treated with 50 μM kaempferol for 12 h. After 48 h. cells were collected and lysed with cell lysis buffer.
# PIM3 = target: T2, PIM3 (Homo sapiens, UniProt Q86V86); test: FOXP3 phosphorylation induced by PIM3 in HEK293T cells (immunoblot); conditions: Myc-FOXP3 + FLAG-PIM3, 50 μM, 12 h
# T2 construct: expressed in transfected cells; host or cells: HEK293T
# Procedure: as §1, §2, §3
# [1] = system: Jurkat cells stably expressing HA-FOXP3; test: FOXP3 protein degradation induced by PMA/LPS in Jurkat cells stably expressing HA-FOXP3 (immunoblot); conditions: PMA 25 ng/ml + LPS 1 ng/ml, 24 h; kaempferol 50 μM, PIM1 inhibitor 100 nM, PI3K inhibitor 10 μg/ml; DMSO control
# Procedure: HA-FOXP3-Jurkat stable expression cells were treated with PMA (25 ng/ml) and LPS (1 ng/ml). 50 μM kaempferol, 100 nM PIM1 inhibitors (specifically of 4-[3-(4-chlorophenyl)-2,1-benzisoxazol-5-yl]-2-pyrimidinamine), and 10 μg/ml PI3K inhibitor (LY294002) were added, and DMSO as a control. Cells were collected 24 h later. The levels of FOXP3 and GAPDH were detected directly by immunoblot.
# Human embryonic kidney cell line HEK293 was co-transfected with FUGW-HA-FOXP3, del 8.9 and VSV-G. Cell culture supernatants were collected 48 h and 72 h after transfection. Viruses were purified by ultracentrifugation and used to infect Jurkat E6.1 to ultimately obtain Jurkat cell lines stably expressing HA-FOXP3.
# as §2
# Jurkat cells stably expressing HA-FOXP3 were treated with PMA (25 ng/ml) and LPS (1 ng/ml). Each sample was added 50 μM kaempferol, 100 nM PIM1 inhibitor (i.e., 4-[3-(4-chlorophenyl)-2,1-benzisoxazol-5-yl]-2-pyrimidinamine), and 10 μg/ml PI3K inhibitor (LY294002). DMSO serves as a control. Cells were collected after 24 h.
# [2] = system: induced Treg cells from human CD4+ CD45RA+ natural T cells; test: FOXP3 and CTLA4 expression in induced Treg (flow cytometry); conditions: 50 uM, 48 h, vs DMSO control group
# Procedure: Human CD4+ CD45RA+ natural T cells (i.e., natural T cells rather than Treg cells) were sorted by BD FACS Aria II flow sorter and expanded by Bead-CD3/CD28 (2:1), IL-2 (100 U/ml), and TGF-β (1 ng/ml, 3 ng/ml, and 5 ng/ml) for 5 days. DMSO or kaempferol (50 uM) was added and treated for 48 h. Flow cytometry analysis was performed after PE-FOXP3 (FIG. 14B) and APC-CTLA4 (FIG. 14A) antibody staining.
# Human CD4+ CD45RA+ natural T cells (i.e., natural T cells rather than Treg cells) were sorted by BD FACS Aria II flow sorter and expanded using Bead-CD3/CD28 (2:1). IL-2 (100 U/ml), and TGF-β (1 ng/ml, 3 ng/ml, and 5 ng/ml) for 5 days to obtain the induced Treg cells. DMSO or kaempferol (50 uM) was added and treated for 48 h.
# PIM1 [3] = target: T3, PIM1 (Homo sapiens, UniProt P11309); test: FOXP3 S422 phosphorylation induced by PIM1 in HEK293T cells (immunoblot); design: expressed in transfected cells; host or cells: HEK293T
# Procedure: Myc-FOXP3 and FLAG-PIM1 were co-transfected into HEK293T cells. After 36 h, cells were treated, respectively, with 50 nM, 10 nM, 2 nM, 0.4 nM of PIM1 inhibitor and 50 μM, 10 μM, 2 μM, 0.4 μM, 0.08 μM of kaempferol for 12 h. Cells were collected at 48 h after cell transfection.
# as §1
# (§4) FLAG-PIM1 was transfected and MYC-FOXP3 and FLAG-PIM1 co-transfected into HEK293T cells. After 36 h, HEK293 was used as blank control group and each group was treated with 50 μM of kaempferol for 12 h. After 48 h, cells collected and lysed by cell lysis buffer. The levels of pS422-FOXP3, FOXP3, phosphorylated-histone H3 (Ser10), histone H3, and GAPDH were detected directly by immunoblot.
# Protein samples were subjected to SDS-PAGE, and then transferred to nitrocellulose membrane, which was then sealed in TBST containing 5% nonfat dry milk or 3% bovine serum albumin for 1 h. […]
# HEK293T cells were transfected with FLAG-PIM1, and co-transfected with MYC-FOXP3 and FLAG-PIM1. […] The levels of pS422-FOXP3, FOXP3, histone H3 Ser10 phosphorylation, histone H3, and GAPDH were directly detected by immunoblot (results shown in FIG. 12).
# PIM1 [4] = target: T3, PIM1; test: Histone H3 S10 phosphorylation induced by PIM1 in HEK293T cells (immunoblot); design: expressed in transfected cells; host or cells: HEK293T; conditions: 50 μM, 12 h
# Procedure: FLAG-PIM1 was transfected into HEK293T cells. 36 h later, cells were treated with 50 μM of kaempferol for 12 h. 48 h after cell transfection, cells were treated in whole cell lysis solution. The levels of phosphorylated (Phospho)-histone H3S10, histone H3, and PIM1 were detected directly by immunoblot.
# as §4, §2
# HEK293T cells were co-transfected with MYC-FOXP3 and FLAG-PIM1. 36 h later, cells were treated with 50 μM of kaempferol for 12 h. Cells were collected at 48h after transfection and directly sonicated in SDS-loading buffer, and lysed by boiling.
# HEK293T cells were transfected with FLAG-PIM1, and co-transfected with MYC-FOXP3 and FLAG-PIM1. 36 h later, HEK293 was used as blank control group and each group was treated with 50 μM of kaempferol for 12 h, respectively. Cells were collected alter 48 h and lysed with cell lysis buffer. The levels of pS422-FOXP3, FOXP3, histone H3 Ser10 phosphorylation, histone H3, and GAPDH were directly detected by immunoblot (results shown in FIG. 12).
# [5] = HEK293T transfected with FLAG-PIM1
# T3 sequence (P11309 whole entry): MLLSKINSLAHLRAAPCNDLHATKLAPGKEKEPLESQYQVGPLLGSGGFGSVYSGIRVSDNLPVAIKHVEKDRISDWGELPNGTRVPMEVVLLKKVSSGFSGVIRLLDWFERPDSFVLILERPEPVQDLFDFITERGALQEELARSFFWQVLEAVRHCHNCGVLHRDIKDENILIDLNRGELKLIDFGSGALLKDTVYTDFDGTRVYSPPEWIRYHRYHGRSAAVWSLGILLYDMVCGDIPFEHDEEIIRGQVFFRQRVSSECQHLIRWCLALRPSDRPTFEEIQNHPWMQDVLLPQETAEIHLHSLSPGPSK
# T1 sequence (Q9P1W9 whole entry): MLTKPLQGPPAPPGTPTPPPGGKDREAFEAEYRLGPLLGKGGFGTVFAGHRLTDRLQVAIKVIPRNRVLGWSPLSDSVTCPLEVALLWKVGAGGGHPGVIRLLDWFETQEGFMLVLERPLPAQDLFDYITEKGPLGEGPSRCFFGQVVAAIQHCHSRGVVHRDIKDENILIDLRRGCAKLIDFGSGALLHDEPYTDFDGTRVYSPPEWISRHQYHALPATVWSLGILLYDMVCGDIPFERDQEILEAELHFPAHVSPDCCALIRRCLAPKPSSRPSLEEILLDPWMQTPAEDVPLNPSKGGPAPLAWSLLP
smiles,measurement,setting,value
O=c1c(O)c(-c2ccc(O)cc2)oc2cc(O)cc(O)c12 [kaempferol],FOXP3 phosphorylation levels induced by PIM2,PIM2,does not affect
same,FOXP3 phosphorylation levels induced by PIM3,PIM3,does not affect
same,FOXP3 protein degradation,[1],can inhibit
same,CLTA4+ FOXP3+ Treg cell levels,[2],significantly increase
same,FOXP3 expression levels,[2],significantly increase
same,"FOXP3 S422 phosphorylation, dose response","PIM1 [3]; MYC-FOXP3 + FLAG-PIM1, 50, 10, 2, 0.4, 0.08 μM for 12 h",inhibits FOXP3 S422 phosphorylation in a dose-dependent manner
same,FOXP3 S422 phosphorylation induced by PIM1,"PIM1 [3]; Myc-FOXP3 + FLAG-PIM1, 50 μM, 12 h",specifically inhibits; also recorded: can inhibit
same,PIM1 expression levels,PIM1 [4]; [5],does not affect
same,histone H3 S10 phosphorylation induced by PIM1,PIM1 [4]; [5],inhibits; also recorded: can inhibit
same,histone H3 S10 phosphorylation in the control group,PIM1 [4]; HEK293 blank control group (no PIM1 transfection),does not affect
